Legend:
[1] = system: splenocytes from C57BL/6 TLR2KO mice; test: Binding of CFSE labeled peptides to fixed splenocytes from TLR2 KO mice (flow cytometry); type: cell-based, mouse; conditions: 20 μM peptide, 30 minutes at 4° C.
Procedure: Mouse splenocytes were purified from C57BL/6 TLR2KO mice after homogenizing the spleen. […] 5×10^5 fixed splenocytes were incubated in the presence of 20 μM CFSE γMod-SIINFEKL, CFSE αMod-SIINFEKL or CFSE-OVA (235-264) control peptide to show the binding specificity.

[2] = system: bone marrow derived dendritic cells; test: Binding of CFSE labeled peptides to bone marrow derived dendritic cells (flow cytometry); type: cell-based, mouse; conditions: 20 μM peptide, fixed cells, 30 minutes at 4° C.
Procedure: Dendritic cells were grown from bone marrow cells. After lysing the erythrocytes with ACK lysis buffer, the cells were washed and lymphocytes and granulocytes were removed by means of incubation with a mixture of antibodies against CD4 (GK1; ATCC, Manassas, Va.), CD8 (53.6.72; ATCC), Ly-6G/Gr1 (BD-Pharmingen; San Diego Calif.) and CD45R/B220 (BD-Pharmingen), followed by rabbit supplement. The remaining cells grew in 12 culture plates in complete medium with 10^6 cells/ml supplemented with 20 ng/ml of mGM-CSF and 20 ng/ml of mIL-4 (both from Peprotech; London, GB). Every 2 days the medium was substituted with fresh medium containing cytokines. On day 7, non-adherent dendritic cells were collected, and cultured in the presence or absence of 50 μM of modulin peptides or of 1 μg/ml of LPS (Sigma) and incubated for 48 hours at 37° C. and 5% CO2. After this period, the cells were isolated and incubated with anti IAb, CD54 and CD86 antibodies (Pharmingen). In parallel experiments, the dendritic cells were incubated with the indicated stimuli for 16 hours, after which the expression of the messenger RNA for the p40 molecules of IL-12 and of TNF-α was analyzed.

[3] = system: CD4, CD8, CD11c, CD19, F480 or GR1(CD117) positive splenocytes; conditions: total splenocytes, double staining, 20 μM
Procedure: (§4) Binding assays were carried out using either splenocytes (FIG. 1, panels A B, D, E and G) or bone marrow derived dendritic cells (FIG. 1, panels C and F). The cells were fixed by means of an incubation with a 0.4% glutaraldehyde solution for 15 minutes at 4° C. 5×10^5 fixed cells were incubated in the presence of 20 μM CFSE αMod-[sequence] (FIG. 1, panels A, B and C), or CFSE γMod-[sequence] (FIG. 1, panels D, E, F and G). In some assays, and to study the specificity of CFSE labeled peptide binding, these incubations were carried out in the presence or absence of the unlabeled peptides αMod-[sequence], γMod-[sequence] or [sequence] (100 μM) (panels B and E). Also, we carried out binding assays using the CFSE labeled peptide CFSE-OVA (235-264) as a negative control (FIG. 1, panels A, C, D and F). After 30 minutes of incubation at 4° C., two washings with PBS were carried out and the performed labeling was analyzed by flow cytometry. In some experiments (FIG. 1G), double staining was carried out using anti-CD4, CD8, CD11c, CD19, F480 or GR1(CD117) antibodies labeled with phycoerythrin (Pharmingen) together with the CFSE-γMod-[sequence] peptide. In these cases, the labeling with the specific antibodies was carried out before fixing the cells with glutaraldehyde.

[4] = system: T cells from OT-1 transgenic mice; test: Antigen presentation assay: proliferation of OT-1 T cells (tritiated thymidine); type: cell-based, mouse; conditions: dendritic cells incubated with 10 μM peptide
Procedure: Dendritic cells derived from bone marrow were cultured in the presence or absence of 10 μM of the indicated peptides (FIG. 3). Forty hours later, the cells were washed and distributed in 96-well plates at different concentrations and incubated in the presence of 10^5 T cells/well obtained from OT-1 transgenic mice (which express a specific T receptor for the SIINFEKL peptide of ovalbumin. Seventy-two hours later, tritiated thymidine was added to the cultures and six hours later the cells were harvested and the incorporated thymidine was analyzed in a scintillation counter (Topcount Packard).

[5] = system: IFNγ-producing cells in response to the SIINFEKL peptide; test: ELISPOT of IFNγ-producing cells specific for SIINFEKL after immunization; type: in vivo, C57BL/6 mice; conditions: for IFNγ-producing cells in response to SIINFEKL (ELISPOT): 5 nmoles peptide plus 50 μg poly I:C, seven days after immunization; for IFN-γ-producing cells specific for SIINFEKL (ELISPOT): Example 4, C57BL/6 wild type mice, 5 nmoles peptide with 50 μg poly I:C, seven days
Procedure: (§1) C57BL6 mice were intravenously immunized intravenously with 5 nmoles of the indicated peptides in combination with 50 μg of the TLR3 ligand poly I:C. In some cases, the peptides were immunized in the presence of TLR2 (peptidoglycan), TLR4 (LPS or the EDA protein) or TLR9 (CpG) ligand. Seven days after the immunization, the mice were intravenously injected with a mixture of 5×10^6 splenocytes, half of which had been previously labeled with a dose of 0.25 μM C and the other half with 2.5 uM CFSE and the SIINFEKL peptide (10 μg/ml). On the following day, the mice were sacrificed and the splenocytes were analyzed by flow cytometry to quantify the number of cells with high CFSE labeling with respect to the cells with low CFSE labeling. Thus, the percentage of cell lysis of the cells incubated with the cytotoxic SIINFEKL peptide can be calculated in an experiment called in vivo killing.
For the analysis of IFNγ-producing cells specific for SIINFEKL and induced in vivo by the immunizations, ELISPOT experiments were carried out using a BD-pharmingen kit (San Diego, Calif.) and according to the instructions of the manufacturer. Briefly, the plates (Multiscreen HTS, Millipore, Bedford, Mass.) incubated overnight with the anti-IFNγ antibody were blocked for 2 hours with HL-1 medium (Biowhittaker, Verviers, Belgium) containing 10% horse serum. Thus, 5×10^5 splenocytes were incubated in triplicate in the absence or in the presence of the antigens at 37° C. and 5% CO2. On the following day, the plates were washed with PBS and incubated with biotinylated anti-IFNγ antibody (2 mg/ml). After two hours, the plates were washed and incubated with a 1/100 dilution of streptavidin-peroxidase. One hour later, the wells were washed and developed using the AEC substrate set (BD-Pharmingen). The colorimetric reaction was stopped with distilled water and the number of spots was quantified using an ELISPOT automatic reader (CTL, Aalen, Germany).
(§2) For the analysis of IFNγ-producing cells in the presence of SIINFEKL and induced in vivo by the immunizations, ELISPOT experiments were carried out using a BD-pharmingen kit (San Diego, Calif.) and according to the instructions of the manufacturer, in the same manner as in Example 3.

[6] = system: splenocytes pulsed with the SIINFEKL peptide; test: In vivo killing assay against SIINFEKL-pulsed splenocytes after immunization; set-up: species or system C57BL/6 mice; conditions: for specific cytotoxic activity against SIINFEKL (in vivo killing): 5 nmoles peptide plus 50 μg poly I:C, seven days after immunization; for effect of combination with TLR3 ligand on activation of the cytotoxic response (in vivo killing): 5 nmoles peptide with 50 μg TLR3 ligand (poly I:C); for effect of combination with TLR3 ligand on activation of the cytotoxic response (in vivo killing) / effect of combination with TLR9 ligand on activation of the cytotoxic response (in vivo killing) / cytotoxic T responses against SIINFEKL target cells (in vivo killing): seven days; for effect of combination with TLR9 ligand on activation of the cytotoxic response (in vivo killing): 5 nmoles peptide with 50 μg TLR9 ligand (CpG); for cytotoxic T responses against SIINFEKL target cells (in vivo killing): Example 4, C57BL/6 wild type mice, 5 nmoles peptide with 50 μg poly I:C
Procedure: as §1, with “Seven days after the immunization, the mice were intravenously injected with a mixture of 5×10^6 splenocytes, half of which had been previously labeled with a dose of 0.25 μM C and the other half with 2.5 uM CFSE and the SIINFEKL peptide (10 μg/ml).” left out
C57BL6 wild type mice and knockout mice were immunized for TLR2 with the aim of studying the dependence on TLR2 in the immunostimulating capacity of modulin-derived peptides. Thus, different mice were injected with 5 nmoles of the indicated peptides or with PBS in combination with 50 μg of the TLR3 ligand poly I:C. […] On the following day, the mice were sacrificed and the splenocytes were analyzed by flow cytometry to quantify the number of cells with high CFSE labeling with respect to the cells with low CFSE labeling in the same manner as in Example 3.

[7] = system: IFNγ-producing cells in response to the SIINFEKL peptide; test: ELISPOT of IFNγ-producing cells specific for SIINFEKL in TLR2 KO mice; type: in vivo; conditions: mice lacking TLR2, 5 nmoles peptide with 50 μg poly I:C, seven days; level similar to wild type
Procedure: as §2

[8] = system: splenocytes pulsed with the SIINFEKL peptide; test: In vivo killing assay against SIINFEKL-pulsed splenocytes in TLR2 KO mice; conditions: mice lacking TLR2, 5 nmoles peptide with 50 μg poly I:C, seven days; level similar to wild type
Procedure: C57BL6 wild type mice and knockout mice were immunized for TLR2 with the aim of studying the dependence on TLR2 in the immunostimulating capacity of modulin-derived peptides. Thus, different mice were injected with 5 nmoles of the indicated peptides or with PBS in combination with 50 μg of the TLR3 ligand poly I:C. Seven days after the immunization, the mice were intravenously injected with a mixture of 5×10^6 splenocytes, half of which had been previously labeled with a dose of 0.25 μM C and the other half with 2.5 μM CFSE and the SIINFEKL peptide (10 μg/ml). On the following day, the mice were sacrificed and the splenocytes were analyzed by flow cytometry to quantify the number of cells with high CFSE labeling with respect to the cells with low CFSE labeling in the same manner as in Example 3.

EG7OVA tumor cells [9] = test: Treatment of mice bearing established EG7OVA tumors; type: in vivo, C57BL/6 mice; conditions: EG7OVA tumors of 5 mm diameter at treatment, peptide plus poly I:C, p<0.05
Procedure: (§3) Protection against the challenge with EG7 tumor cells expressing the OVA protein C57BL6 mice were subcutaneously immunized with 5 nmol of the indicated peptides in combination with poly I:C. Seven days after the immunization, the mice were subcutaneously injected with 5×10^5 or with 5×10^7 EG7OVA cells. In some experiments, mice were first challenged s.c with 5×10^5 cells and when tumors reached 5 mm in diameter they were treated with the indicated peptide. The tumor growth was controlled with a gage. Mice were sacrificed when the tumor reached a volume greater than 4 cm^3. Kaplan-Meier plot of mice survival for each immunogen is depicted.

EG7OVA tumor cells [10] = test: Protection against the challenge with EG7OVA tumor cells after immunization; type: in vivo, C57BL/6 mice; conditions: 5 nmoles peptide with poly I:C
Procedure: as §3, with “Seven days after the immunization, the mice were subcutaneously injected with 5×10^5 or with 5×10^7 EG7OVA cells.” left out

mouse splenocytes = test: Binding of CFSE labeled peptides to glutaraldehyde-fixed splenocytes (flow cytometry); type: cell-based; conditions: unlabeled competitor 100 μM
Procedure: as §4

[11] = system: IFN-γ producing cells in the presence of the peptide E7(49-57); test: ELISPOT of IFN-γ producing cells against peptide E7(49-57) after immunization; type: in vivo, C57BL6 mice; conditions: 5 nmoles peptide with 50 μg poly I:C, seven days after immunization
Procedure: C57BL6 mice were intravenously immunized with 5 nmoles of the indicated peptides in combination with 50 μg of the TLR3 ligand poly I:C. For the analysis of the IFN-γ producing cells in the presence of the peptide E7(49-57) and induced in vivo by the immunizations, the animals were sacrificed 7 days after the immunizations and ELISPOT experiments were conducted using a BD-pharmingen kit (San Diego, Calif.) as indicated above and using peptide E7(49-57) as an antigen.

[12] = system: TC-1 tumor cells (expressing the E7 protein of the HPV-16 virus); test: Treatment of mice carrying TC1 subcutaneous tumors; type: in vivo, C57B/6 mice; conditions: TC1 tumors of 8 mm diameter, i.v. peptide plus 50 μg/ml poly I:C, second immunization seven days later
Procedure: The C57B/6 mice were subcutaneously injected with 5×10^5 TC-1 tumor cells (expressing the E7 protein of the HPV-16 virus). After 25 days, when the tumor reaches a diameter of 8 mm, the mice are intravenously treated with PBS (B), with peptide E7(49-57) plus 50 μg/ml poly I:C(C), or with peptide αMod-E7(49-57) plus 50 μg/ml poly I:C (D). Seven days later, the mice received a second immunization of the same immunogens. The tumor size, presented as the average of two perpendicular diameters, was measured at regular intervals using a gauge. The number of tumor-free mice relative to the total number of animals per group is included for each treatment.

Substance	proliferation of OT-1 T lymphocytes stimulated by peptide-incubated dendritic cells [4]	IFNγ-producing cells in response to SIINFEKL (ELISPOT) [5]	IFN-γ-producing cells specific for SIINFEKL (ELISPOT) [5]	specific cytotoxic activity against SIINFEKL (in vivo killing) [6]	effect of combination with TLR3 ligand on activation of the cytotoxic response (in vivo killing) [6]	effect of combination with TLR9 ligand on activation of the cytotoxic response (in vivo killing) [6]	cytotoxic T responses against SIINFEKL target cells (in vivo killing) [6]	IFN-γ-producing cells specific for SIINFEKL (ELISPOT) [7]	cytotoxic T responses against SIINFEKL target cells (in vivo killing) [8]	also measured
CFSE-MAADIISTIGDLVKWIIDTVNKFKKSIINFEKL [CFSE-γMod-SIINFEKL]	–	–	–	–	–	–	–	–	–	binding of CFSE labeled peptide to the surface of TLR2 KO splenocytes [1]: still retained the capacity to bind; binding of CFSE labeled peptide to bone marrow derived dendritic cells [2]: able to stain bone marrow derived dendritic cells; percentage of CD4+ cells stained with the CFSE peptide [3]: approximately 24.4%; percentage of CD8+ cells stained with the CFSE peptide [3]: ~17.8%; percentage of CD11c cells stained with the CFSE peptide [3]: ~62.1%; percentage of CD19 cells stained with the CFSE peptide [3]: ~52.8%; percentage of F418 cells stained with the CFSE peptide [3]: ~66.2%; percentage of GR1+ cells stained with the CFSE peptide [3]: ~27.3%
MAADIISTIGDLVKWIIDTVNKFKKSIINFEKL [γMod-SIINFEKL]	significantly better than OVA (235-264) peptide	production of IFNγ	is induced	strong cytotoxic responses	synergistic effect	synergistic effect	capable of inducing cytotoxic T responses	also observed	also observed	mice rejecting the established tumor (EG7OVA tumor cells [9]): about 38%; protection from tumor growth after EG7OVA challenge (EG7OVA tumor cells [10]; 7×10^5 EG7OVA cells s.c. seven days after immunization (FIG. 5B)): protected the mice from tumor growth; reduction of the bright fluorescence of CFSE γMod-SIINFEKL on splenocytes by unlabeled peptide (mouse splenocytes; 20 μM CFSE γMod-SIINFEKL): reduced the bright fluorescence
MADVIAKIVEIVKGLIDQFTQKRAHYNIVTF [αMod-E7(49-57)]	–	–	–	–	–	–	–	–	–	response against the cytotoxic peptide E7 (49-57) (ELISPOT, IFN-γ producing cells) [11]: induces a specific cytotoxic response; number of tumor-free (cured) mice relative to the total number of mice [12]: 11 of 11
MADVIAKIVEIVKGLIDQFTQKSIINFEKL [αMod-SIINFEKL]	significantly better than OVA (235-264) peptide	production of IFNγ	is induced	strong cytotoxic responses	synergistic effect	synergistic effect	capable of inducing cytotoxic T responses	also observed	also observed	protection from tumor growth after EG7OVA challenge (EG7OVA tumor cells [10]; 5×10^5 EG7OVA cells s.c. seven days after immunization (FIG. 5A)): protected the mice from tumor growth; inhibition of the CFSE αMod-SIINFEKL signal on splenocytes by unlabeled peptide (mouse splenocytes; 20 μM CFSE αMod-SIINFEKL): significantly inhibited

— patent US20110268757A1, “USE OF PHENOL-SOLUBLE MODULINS FOR VACCINE DEVELOPMENT” (INSTITUT PASTEUR, priority 2008, published 2011)
